Measurements taken from patent US20240124460A1, “METHODS AND COMPOSITIONS FOR TARGETED PROTEIN DEGRADATION” (Ranok Therapeutics (Hangzhou) Co. Ltd., priority 2020, published 2024).
Like-named read-outs stand apart in the source and are kept apart here.

Tests used:
[1] = system: U-87 MG human glioblastoma; test: U87 MG CCK-8 proliferation assay; type: cell-based; conditions: U-87 MG cells, read-out: U87MG CCK-8
Procedure, shortened: (§1)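 CCK-8 absorbance read-out, with inhibition expressed against DMSO-treated cells after subtracting a cell-free DMSO medium blank. Compounds tested over a 3-fold dilution series spanning 20 μM to 1.02 nM; lines grown essentially as ATCC recommends.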

ERBB2 = ERBB2 (HER2) flow cytometry protein degradation assay in BT-474 cells; type: cell-based, human; conditions: DC50, BT-474 cells, 24 hr
Procedure: To analyze total ERBB2 expression by flow cytometry, cells were detached with trypsin, washed, counted and treated with 10 μl/10^6 cells PE-conjugated, anti-ERBB2 monoclonal antibody (R&D Systems, #FAB1129P) for 30 min at 25° C. in dark. Cells were then washed, resuspended in 200 μl 1% paraformaldehyde and analyzed by flow cytometry.
% Inhibition=100−(D−B)/(S−B)*100%. • S: Fluorescence intensity of cells with antibody • D: Fluorescence intensity of compound-treated cells with antibody • B: Fluorescence intensity of cells without antibody

[2] = system: MV-4-11 human acute myeloid leukemia; test: MV-4-11 CCK-8 proliferation assay; type: cell-based; conditions: MV-4-11 cells, 72 hr
Procedure, shortened: as §1

HSP90α protein = biological target: T1, HSP90α protein (Homo sapiens, UniProt P07900); test: HSP90α-binding FP (BODIPY) assay; conditions: FP competition with BODIPY-labeled RNK04010
T1 construct: purchased BPS Bioscience #50298
Procedure, shortened: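 Fluorescence polarization measured competition with N-terminal human HSP90α, using either FITC-geldanamycin or BODIPY-labelled triazolone RNK04010 as tracer (5 nM final each). Compounds were tested in 2.5-fold dilutions from 20 μM to 5.2 nM, with incubation at 25 °C for 120 min (FITC) or 300 min (BODIPY).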

Row | Compound | EC50 ([1]; Homo sapiens, U-87 MG, 72 h) [nM] | EC50 ([2]; Homo sapiens, MV4-11) [nM] | IC50 (HSP90α protein) [nM] | ERBB2 degradation (ERBB2) | EC50 ([1]; 72 hr) [nM] | EC50 [2] [nM]
1 | CCOc1cc(N2CCC(C(=O)NCc3ccc(-n4c(O)nnc4-c4cc(C)c(O)cc4O)cc3)CC2)ccc1Nc1ncc2c(n1)N(C)c1ccccc1C(=O)N2C [Compound 027, N-(4-(3-(2,4-dihydroxy-5-methylphenyl)-5-hydroxy-4H-1,2,4-triazol-4-yl)benzyl)-1-(4-((5,11-dimethyl-6-oxo-6,11-dihydro-5H-benzo[e]pyrimido[5,4-b][1,4]diazepin-2-yl)amino)-3-ethoxyphenyl)piperidine-4-carboxamide] | > 1000 | 100 to 1000 |  | C (DC50 > 1000 nM) |  | 
2 | CCCc1cc(-c2nnc(O)n2-c2ccc(CNC(=O)C3CCN(c4ccc(Nc5ncc6c(n5)N(C)c5ccccc5C(=O)N6C)c(OCC)c4)CC3)cc2)c(O)cc1O [Compound 029, N-(4-(3-(2,4-dihydroxy-5-propylphenyl)-5-hydroxy-4H-1,2,4-triazol-4-yl)benzyl)-1-(4-((5,11-dimethyl-6-oxo-6,11-dihydro-5H-benzo[e]pyrimido[5,4-b][1,4]diazepin-2-yl)amino)-3-ethoxyphenyl)piperidine-4-carboxamide] |  | 100 to 1000 |  | B (DC50 = 100-1000 nM) | > 1000 | 
3 | CCOc1cc(N2CCC(C(=O)NCc3ccc(-n4c(O)nnc4-c4cc(C(C)C)c(O)cc4O)cc3C(F)(F)F)CC2)ccc1Nc1ncc2c(n1)N(C)c1ccccc1C(=O)N2C [Compound 030, N-(4-(3-(2,4-dihydroxy-5-isopropylphenyl)-5-hydroxy-4H-1,2,4-triazol-4-yl)-2-(trifluoromethyl)benzyl)-1-(4-((5,11-dimethyl-6-oxo-6,11-dihydro-5H-benzo[e]pyrimido[5,4-b][1,4]diazepin-2-yl)amino)-3-ethoxyphenyl)piperidine-4-carboxamide] | > 1000 | 100 to 1000 |  | B (DC50 = 100-1000 nM) |  | 
4 | CCNC(=O)c1nnc(-c2cc(CC)c(O)cc2O)n1-c1ccc(CN2CCN(CC3CCN(C(=O)C4CCN(c5ccc(Nc6ncc7c(n6)N(C)c6ccccc6C(=O)N7C)c(OCC)c5)CC4)CC3)CC2)cc1 [Compound 134, 4-(4-((4-((1-(1-(4-((5,11-dimethyl-6-oxo-6,11-dihydro-5H-benzo[e]pyrimido[5,4-b][1,4]diazepin-2-yl)amino)-3-ethoxyphenyl)piperidine-4-carbonyl)piperidin-4-yl)methyl)piperazin-1-yl)methyl)phenyl)-N-ethyl-5-(5-ethyl-2,4-dihydroxyphenyl)-4H-1,2,4-triazole-3-carboxamide] | < 100 | < 100 | < 100 |  |  | 
5 | (1R,4R)-4-((2-carbamoyl-5-(6,6-dimethyl-4-oxo-3-(trifluoromethyl)-4,5,6,7-tetrahydro-1H-indazol-1-yl)phenyl)amino)cyclohexyl 4-(1-(1-(3-ethoxy-4-((5-methyl-11-(methylsulfonyl)-6-oxo-6,11-dihydro-5H-benzo[e]pyrimido[5,4-b][1,4]diazepin-2-yl)amino)phenyl)piperidine-4-carbonyl)piperidin-4-yl)piperazine-1-carboxylate [Compound 118] |  |  | > 1000 |  | > 1000 | 100 to 1000
6 | (1R,4R)-4-((2-carbamoyl-5-(6,6-dimethyl-4-oxo-3-(trifluoromethyl)-4,5,6,7-tetrahydro-1H-indazol-1-yl)phenyl)amino)cyclohexyl 4-(1-(4-((5,11-dimethyl-6-oxo-6,11-dihydro-5H-benzo[e]pyrimido[5,4-b][1,4]diazepin-2-yl)amino)-3-ethoxyphenyl)piperidine-4-carbonyl)piperazine-1-carboxylate [Compound 104] |  |  | > 1000 |  | > 1000 | > 1000
7 | (1R,4R)-4-((2-carbamoyl-5-(6,6-dimethyl-4-oxo-3-(trifluoromethyl)-4,5,6,7-tetrahydro-1H-indazol-1-yl)phenyl)amino)cyclohexyl (3-(1-(4-((5,11-dimethyl-6-oxo-6,11-dihydro-5H-benzo[e]pyrimido[5,4-b][1,4]diazepin-2-yl)amino)-3-ethoxyphenyl)piperidine-4-carboxamido)propyl)carbamate [Compound 102] |  |  | > 1000 |  | > 1000 | 100 to 1000

More lines, main results first:

Row | EC50 ([1]; Homo sapiens, U-87 MG, 72 h) [nM] | EC50 ([2]; Homo sapiens, MV4-11) [nM] | IC50 (HSP90α protein) [nM] | Compound | ERBB2 degradation (ERBB2) | EC50 ([1]; 72 hr) [nM] | EC50 [2] [nM]
8 | > 1000 | 100 to 1000 | > 1000 | CCOc1cc(N2CCC(C(=O)NCCOCCOCCNC(=O)O[C@H]3CC[C@H](Nc4cc(-n5nc(C(F)(F)F)c6c5CC(C)(C)CC6=O)ccc4C(N)=O)CC3)CC2)ccc1Nc1ncc2c(n1)N(S(C)(=O)=O)c1ccccc1C(=O)N2C [Compound 116, (1R,4R)-4-((2-carbamoyl-5-(6,6-dimethyl-4-oxo-3-(trifluoromethyl)-4,5,6,7-tetrahydro-1H-indazol-1-yl)phenyl)amino)cyclohexyl (2-(2-(2-(1-(3-ethoxy-4-((5-methyl-11-(methylsulfonyl)-6-oxo-6,11-dihydro-5H-benzo[e]pyrimido[5,4-b][1,4]diazepin-2-yl)amino)phenyl)piperidine-4-carboxamido)ethoxy)ethoxy)ethyl)carbamate] |  |  | 
9 | > 1000 | 100 to 1000 | > 1000 | CCOc1cc(N2CCC(C(=O)N3CCC(CN4CCN(C(=O)O[C@H]5CC[C@H](Nc6cc(-n7nc(C(F)(F)F)c8c7CC(C)(C)CC8=O)ccc6C(N)=O)CC5)CC4)CC3)CC2)ccc1Nc1ncc2c(n1)N(S(C)(=O)=O)c1ccccc1C(=O)N2C [Compound 117, (1R,4R)-4-((2-carbamoyl-5-(6,6-dimethyl-4-oxo-3-(trifluoromethyl)-4,5,6,7-tetrahydro-1H-indazol-1-yl)phenyl)amino)cyclohexyl 4-((1-(1-(3-ethoxy-4-((5-methyl-11-(methylsulfonyl)-6-oxo-6,11-dihydro-5H-benzo[e]pyrimido[5,4-b][1,4]diazepin-2-yl)amino)phenyl)piperidine-4-carbonyl)piperidin-4-yl)methyl)piperazine-1-carboxylate] |  |  | 
10 | > 1000 | < 100 | > 1000 | CCOc1cc(N2CCC(C(=O)N3CCC(CN4CCN(C(=O)CNC(=O)O[C@H]5CC[C@H](Nc6cc(-n7nc(C(F)(F)F)c8c7CC(C)(C)CC8=O)ccc6C(N)=O)CC5)CC4)CC3)CC2)ccc1Nc1ncc2c(n1)N(S(C)(=O)=O)c1ccccc1C(=O)N2C [Compound 119, (1R,4R)-4-((2-carbamoyl-5-(6,6-dimethyl-4-oxo-3-(trifluoromethyl)-4,5,6,7-tetrahydro-1H-indazol-1-yl)phenyl)amino)cyclohexyl (2-(4-((1-(1-(3-ethoxy-4-((5-methyl-11-(methylsulfonyl)-6-oxo-6,11-dihydro-5H-benzo[e]pyrimido[5,4-b][1,4]diazepin-2-yl)amino)phenyl)piperidine-4-carbonyl)piperidin-4-yl)methyl)piperazin-1-yl)-2-oxoethyl)carbamate] |  |  | 
11 | > 1000 | 100 to 1000 | > 1000 | CCOc1cc(N2CCC(C(=O)NCCOCCOCCNC(=O)O[C@H]3CC[C@H](Nc4cc(-n5nc(C(F)(F)F)c6c5CC(C)(C)CC6=O)ccc4C(N)=O)CC3)CC2)ccc1Nc1ncc2c(n1)N(C)c1ccccc1C(=O)N2C [Compound 120, (1R,4R)-4-((2-carbamoyl-5-(6,6-dimethyl-4-oxo-3-(trifluoromethyl)-4,5,6,7-tetrahydro-1H-indazol-1-yl)phenyl)amino)cyclohexyl (2-(2-(2-(1-(4-((5,11-dimethyl-6-oxo-6,11-dihydro-5H-benzo[e]pyrimido[5,4-b][1,4]diazepin-2-yl)amino)-3-ethoxyphenyl)piperidine-4-carboxamido)ethoxy)ethoxy)ethyl)carbamate] |  |  | 
12 | > 1000 | > 1000 | > 1000 | CCOc1cc(N2CCC(C(=O)N3CCC(CN4CCN(C(=O)O[C@H]5CC[C@H](Nc6cc(-n7nc(C(F)(F)F)c8c7CC(C)(C)CC8=O)ccc6C(N)=O)CC5)CC4)CC3)CC2)ccc1Nc1ncc2c(n1)N(C)c1ccccc1C(=O)N2C [Compound 121, (1R,4R)-4-((2-carbamoyl-5-(6,6-dimethyl-4-oxo-3-(trifluoromethyl)-4,5,6,7-tetrahydro-1H-indazol-1-yl)phenyl)amino)cyclohexyl 4-((1-(1-(4-((5,11-dimethyl-6-oxo-6,11-dihydro-5H-benzo[e]pyrimido[5,4-b][1,4]diazepin-2-yl)amino)-3-ethoxyphenyl)piperidine-4-carbonyl)piperidin-4-yl)methyl)piperazine-1-carboxylate] |  |  | 
13 | > 1000 | 100 to 1000 | > 1000 | CCOc1cc(N2CCC(C(=O)N3CCC(CN4CCN(C(=O)CNC(=O)O[C@H]5CC[C@H](Nc6cc(-n7nc(C(F)(F)F)c8c7CC(C)(C)CC8=O)ccc6C(N)=O)CC5)CC4)CC3)CC2)ccc1Nc1ncc2c(n1)N(C)c1ccccc1C(=O)N2C [Compound 122, (1R,4R)-4-((2-carbamoyl-5-(6,6-dimethyl-4-oxo-3-(trifluoromethyl)-4,5,6,7-tetrahydro-1H-indazol-1-yl)phenyl)amino)cyclohexyl (2-(4-((1-(1-(4-((5,11-dimethyl-6-oxo-6,11-dihydro-5H-benzo[e]pyrimido[5,4-b][1,4]diazepin-2-yl)amino)-3-ethoxyphenyl)piperidine-4-carbonyl)piperidin-4-yl)methyl)piperazin-1-yl)-2-oxoethyl)carbamate] |  |  | 
